# Data: article PMC8394532, “Structural and Functional Insights into the Biofilm-Associated BceF Tyrosine Kinase Domain from Burkholderia cepacia” (Biomolecules, 2021)
# What was measured:
# BceF kinase domain [1] = biological target: T1, BceF kinase domain (Burkholderia cepacia, UniProt Q0GYW2); assay: microscale thermophoresis, NT-647 labelled protein; format: binding
# T1 construct: cytoplasmic kinase domain, residues 471-741; synthetic codon-optimised gene, N-terminal His6-TEV; E. coli BL21(DE3); partly phosphorylated C-terminal tyrosines
# BceF kinase domain [2] = biological target: T1, BceF kinase domain; assay: X-ray crystal structure, […] Å; format: binding; conditions: endogenous ADP co-purified from E. coli; active site; crystals pH 5.5
# [3] = biological target: the molecule itself; assay: SEC-MALS; Superdex 75 10/300 column, miniDAWN TREOS and Optilab T-rEX; SEC analysis at pH 7.5; single species of 59.1 kDa against a calculated monomer of 29.4 kDa
molecule,measurement,setting,value
Nc1ncnc2c1ncn2[C@@H]1O[C@H](COP(=O)(O)OP(=O)(O)NP(=O)(O)O)[C@@H](O)[C@H]1O [AMP-PNP],Kd,BceF kinase domain [1],1640 ± 220 µM
Nc1ncnc2c1ncn2[C@@H]1O[C@H](COP(=O)(O)OP(=O)(O)O)[C@@H](O)[C@H]1O [ADP],"X-ray crystal structure, 1.85 Å",BceF kinase domain [2],The structure revealed an adenosine diphosphate (ADP) molecule bound at the active site
"BceF kinase domain (residues 471-741) from Burkholderia cepacia (domain or fragment, partly phosphotyrosine in the C-terminal tail 725-741 (MS/MS: 28% non-phosphorylated, 68% monophosphorylated mostly at the third tyrosine, position 14 of the peptide), His6 tag and TEV site at the N-terminus; cleaved with TEV in the preparation for crystallisation; also called isolated BceF kinase domain; BceF tyrosine kinase domain; source: E. coli BL21(DE3), purified (HisTrap, TEV cleavage, second HisTrap, SEC Superdex 200); not shown: His6, N-terminal, cleaved) RRNMFQGIEDPDRIERAFNLPLYGLVPQSAEQVKLDAQAEKSGSRTRPILASLRPKDLSVESLRSLRTAMQFAMMDAKNRVIVLTGPTPGIGKSFLTVNLAVLLAHSGKRVLLIDADMRRGLLDRYFGLTSQPGLSELLSDQSALEDAVRETPVQGLSFISAGTRPPNPSELLMSTRLPQYLEGLGKRYDVVLIDSPPVLAVTDATIIGRMAGSTFLVLRSGMHTEGEIADAIKRLRTAGVDLEGGIFNGVPPKARGYGRGYAAVHEYLSA",stoichiometry N,[3],2
